This is an account of results in patent US9428513B2, “Triazolopyrazine” (Boehringer Ingelheim International GmbH, priority 2013, dated 2016).

This assay concerns the target BRD4-BD1 (Homo sapiens (Human), UniProt O60885). Description: BRD4-H4 Tetraacetylated Peptide Inhibition AlphaScreen. Type of assay: biochemical. The settings on record: GST-BRD4-BD1 (aa 44-168) / biotinylated Acetyl-Histone H4 (Lys5, 8, 12, 16) peptide. As to the method: Biological Methods BRD4-H4 Tetraacetylated Peptide Inhibition AlphaScreen
Compounds are diluted in serial dilution 1:5 in assay buffer from 10 mM stock in DMSO (100 μM start concentration) in white OptiPlate-384 (PerkinElmer). A mix consisting of 15 nM GST-BRD4-BD1 protein (aa 44-168) or 150 nM GST-BRD4-BD2 (aa 333-460) and 15 nM biotinylated Acetyl-Histone H4 (Lys5, 8, 12, 16) peptide is prepared in assay buffer (50 mM HEPES pH=7.4; 25 mM NaCl; 0.05% Tween 20; 0.1% bovine serum albumin (BSA); 10 mM dithiothreitol (DTT)). 6 μl of the mix is added to the compound dilutions. Subsequently, 6 μl of premixed AlphaLISA Glutathione Acceptor Beads and AlphaScreen Streptavidin Donor Beads from PerkinElmer (in assay buffer at a concentration of 10 μg/ml each) are added and the samples are incubated for 30 min at RT in the dark (shaking 300 rpm). Afterwards, the signal is measured in a PerkinElmer Envision HTS Multilabel Reader using the AlphaScreen protocol from PerkinElmer.
Each plate contains negative controls where biotinylated Acetyl-Histone H4 peptide and GST-BRD4-BD1 or GST-BRD4-BD2 are left out and replaced by assay buffer. Negative control values are entered as low basis value when using the software GraphPad Prism for calculations. Furthermore, a positive control (probe molecule JQ1+ with protein/peptide mix) is pipetted. Determination of IC50 values are carried out using GraphPad Prism 3.03 software (or updates thereof).
`COCCn1c(-c2cn3c(C)nnc3c(NC(C)C)n2)nc2cnc(N3CCOCC3)cc21` [I-1, 6-[1-(2-methoxyethyl)-6-(morpholin-4-yl)-1H-imidazo[4,5-c]pyridin-2-yl]-3-methyl-N-(propan-2-yl)-[1,2,4]triazolo[4,3-a]pyrazin-8-amine] had an IC50 of 0.032 µM. In the case of `COC[C@@H](C)n1c(-c2cn3c(C)nnc3c(NC(C)C)n2)nc2cnc(N3CCOCC3)cc21` [I-2], the IC50 was 0.333 µM.

The molecule `COC[C@H](C)n1c(-c2cn3c(C)nnc3c(NC(C)C)n2)nc2cnc(N3CCOCC3)cc21` [I-3] displayed an IC50 of 0.033 µM.

Turning to `Cc1nnc2c(NC(C)C)nc(-c3nc4cnc(N5CCOCC5)cc4n3CCOC(C)C)cn12` [I-4], the IC50 is 0.043 µM.

Regarding `CCOCCn1c(-c2cn3c(C)nnc3c(NC(C)C)n2)nc2cnc(N3CCOCC3)cc21` [I-5], the IC50 came out at 0.033 µM. With `CNc1nc(-c2nc3cnc(N4CCOCC4)cc3n2[C@@H](C)COC)cn2c(C)nnc12` [I-6] the figure was 0.051 µM. `CNc1nc(-c2nc3cnc(N4CCOCC4)cc3n2C[C@@H]2CCCO2)cn2c(C)nnc12` [I-7] displayed an IC50 of 0.055 µM. Turning to `Cc1nnc2c(NC(C)C)nc(-c3nc4cnc(N5CCOCC5)cc4n3C[C@@H]3CCCO3)cn12` [I-8], the IC50 came out at 0.055 µM. That is a double-digit nanomolar value.

`CNc1nc(-c2nc3cnc(N4CCOCC4)cc3n2CC2CCCO2)cn2c(C)nnc12` (stereo not shown) [I-9] had an IC50 of 0.065 µM.

Molecule `Cc1nnc2c(NC(C)C)nc(-c3nc4cnc(N5CCOCC5)cc4n3C[C@H]3CCCO3)cn12` [I-10] gave an IC50 of 0.054 µM. In turn, `CNc1nc(-c2nc3cnc(N4CCOCC4)cc3n2[C@H](C)COC)cn2c(C)nnc12` [I-11] had an IC50 of 0.549 µM. Turning to `COC[C@H](C)n1c(-c2cn3c(C)nnc3c(NC(C)C)n2)nc2cnc(N3CCOC[C@@H]3C)cc21` [I-12], half-maximal inhibition (IC50) was put at 0.051 µM. `CNc1nc(-c2nc3cnc(N4CCOC[C@@H]4C)cc3n2[C@@H](C)COC)cn2c(C)nnc12` [I-13]: the IC50 came to 0.027 µM. `COC[C@H](C)n1c(-c2cn3c(C)nnc3c(NC(C)C)n2)nc2ccc(C3CCOCC3)cc21` [I-14] registered an IC50 of 0.049 µM. `COC[C@H](C)n1c(-c2cn3c(C)nnc3c(NC(C)C)n2)nc2ccc(C(C)C)cc21` [I-15] registered an IC50 of 0.123 µM. Molecule `COC[C@H](C)n1c(-c2cn3c(C)nnc3c(NC(C)C)n2)nc2cc3c(cc21)N(C)C(=O)C3(C)C` [I-16] displayed an IC50 of 0.022 µM. For `COC[C@H](C)n1c(-c2cn3c(C)nnc3c(NC(C)C)n2)nc2cnc(N)cc21` [I-18], the IC50 was determined as 0.069 µM. As for `COC[C@H](C)n1c(-c2cn3c(C)nnc3c(NC(C)C)n2)nc2ccc(N3CCOC[C@@H]3C)cc21` [I-19], the figure is 0.058 µM; as for `COC[C@H](C)n1c(-c2cn3c(C)nnc3c(NC(C)C)n2)nc2ccc(N)cc21` [I-20], 0.157 µM; as for `COC[C@H](C)n1c(-c2cn3c(C)nnc3c(NC(C)C)n2)nc2cc3c(cc21)N(C(C)C)S(=O)(=O)C3(C)C` [I-21], 0.017 µM.

The molecule `Cc1nnc2c(NC3CCN(C)CC3)nc(-c3nc4cnc(N5CCOCC5)cc4n3CCOC(C)C)cn12` [I-22] came in with an IC50 of 0.035 µM. In the case of `Cc1nnc2c(NC3CCN(S(C)(=O)=O)CC3)nc(-c3nc4cnc(N5CCOCC5)cc4n3CCOC(C)C)cn12` [I-23], the IC50 turned out to be 0.122 µM. As for `COC[C@H](C)n1c(-c2cn3c(C)nnc3c(NC(C)C)n2)nc2ccc(C3CN(C)CCO3)cc21` (stereo partly shown) [I-24], the IC50 amounted to 0.063 µM. Compared with the last molecule, the IC50 is about 1.9-fold lower. In turn, `Cc1nnc2c(NC(C)C)nc(-c3nc4cnc(N5CCOC[C@@H]5C)cc4n3C(C)CC3CC3)cn12` (stereo partly shown) [I-25] showed an IC50 of 0.009 µM. As to `COC[C@H](C)n1c(-c2cn3c(C)nnc3c(N)n2)nc2cnc(N3CCOCC3)cc21` [I-26], the IC50 amounted to 0.123 µM. This IC50 is about 14-fold higher than that of the molecule before. Molecule `Cc1nnc2c(NC(C)C)nc(-c3nc4cnc(N5CCOC[C@@H]5C)cc4n3C(C)CC(F)(F)F)cn12` (stereo partly shown) [I-27] yielded an IC50 of 0.026 µM.

`COC[C@H](C)n1c(-c2cn3c(C)nnc3c(NC(C)C)n2)nc2ccc(N3CCOCC3)nc21` [I-28] returned an IC50 of 0.069 µM. This IC50 is about 2.7-fold higher than that of the molecule before. Molecule `COCCn1c(-c2cn3c(C)nnc3c(NC(C)C)n2)nc2nc(N3CCOCC3)ccc21` [I-29] gave an IC50 of 0.049 µM.
